Reference: PubChem BioAssay AID2060905 (Molecular Pharmacology Branch, DTP, NCI, 2025)

Test system: 282377-053-R-J1-PDC complex spheroid viability
Assay: Anticancer human tumor 282377-053-R-J1-PDC patient-derived colon adenocarcinoma cell line growth inhibition [RAS]
Conditions: for IC50: curve of first compound; for viability, T/C: stronger effect = lower value
Outline: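 Agents were tested in combination matrices in half-log decrements from a top concentration at or near clinical Cmax (10 microM if undetermined). Targets were multi-cell spheroids of tumour lines plus HUVEC and MSC stromal cells.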
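Also: spheroids exposed to agents for seven days before readout.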
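For viability, T/C in this document: luminescence viability as percent of DMSO vehicle control wells.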

With CC1(O)CCCC1n1c(=O)c(C(F)F)cc2cnc(NC3CCN(S(C)(=O)=O)CC3)nc21 (configuration not stated) + C#Cc1c(F)ccc2cc(O)cc(-c3ncc4c(N5CC6CCC(C5)N6)nc(OCC56CCCN5CC(F)C6)nc4c3F)c12 as the molecule, how does the IC50 (second compound 0.0316 µM) read?
The IC50 was 6.26 µM.

What about the IC50 (second compound 0.1 µM) of the same molecule?
Its IC50 is 6.08 µM.

What about the IC50 (second compound 0.316 µM) of the same molecule?
Its IC50 is 6.1 µM.

What about the IC50 (second compound 1 µM) of the same molecule?
Its IC50 is 6.13 µM.

What about the IC50 (second compound 3.16 µM) of the same molecule?
Its IC50 is 6.17 µM.

And the IC50 (second compound 10 µM)?
Its IC50 is 6.21 µM.

And the viability, T/C (second compound 0.0316 µM, first compound 0.0316 µM)?
Its viability, T/C is 102%.

What about the viability, T/C (second compound 0.0316 µM, first compound 0.1 µM) of the same molecule?
The viability, T/C was 115%.

What about the viability, T/C (second compound 0.0316 µM, first compound 0.316 µM) of the same molecule?
The viability, T/C was 135%.

And the viability, T/C (second compound 0.0316 µM, first compound 1 µM)?
Its viability, T/C is 121%.

And the viability, T/C (second compound 0.0316 µM, first compound 3.16 µM)?
Its viability, T/C is 121%.

What about the viability, T/C (second compound 0.0316 µM, first compound 10 µM) of the same molecule?
Its viability, T/C is 2.6%.

What about the viability, T/C (second compound 0.1 µM, first compound 0.0316 µM) of the same molecule?
The viability, T/C was 109%.

And the viability, T/C (second compound 0.1 µM, first compound 0.1 µM)?
The viability, T/C was 117%.

And the viability, T/C (second compound 0.1 µM, first compound 0.316 µM)?
Its viability, T/C is 128%.

What about the viability, T/C (second compound 0.1 µM, first compound 1 µM) of the same molecule?
The viability, T/C was 125%.

What about the viability, T/C (second compound 0.1 µM, first compound 3.16 µM) of the same molecule?
The viability, T/C was 111%.

And the viability, T/C (second compound 0.1 µM, first compound 10 µM)?
Its viability, T/C is 3.18%.

What about the viability, T/C (second compound 0.316 µM, first compound 0.0316 µM) of the same molecule?
Its viability, T/C is 117%.

And the viability, T/C (second compound 0.316 µM, first compound 0.1 µM)?
Its viability, T/C is 126%.

And the viability, T/C (second compound 0.316 µM, first compound 0.316 µM)?
Its viability, T/C is 120%.

What about the viability, T/C (second compound 0.316 µM, first compound 1 µM) of the same molecule?
The viability, T/C was 108%.

And the viability, T/C (second compound 0.316 µM, first compound 3.16 µM)?
Its viability, T/C is 112%.

And the viability, T/C (second compound 0.316 µM, first compound 10 µM)?
The viability, T/C was 3.11%.

What about the viability, T/C (second compound 1 µM, first compound 0.0316 µM) of the same molecule?
Its viability, T/C is 98.9%.

And the viability, T/C (second compound 1 µM, first compound 0.1 µM)?
The viability, T/C was 111%.

What about the viability, T/C (second compound 1 µM, first compound 0.316 µM) of the same molecule?
The viability, T/C was 123%.

And the viability, T/C (second compound 1 µM, first compound 1 µM)?
Its viability, T/C is 110%.

What about the viability, T/C (second compound 1 µM, first compound 3.16 µM) of the same molecule?
Its viability, T/C is 122%.

What about the viability, T/C (second compound 1 µM, first compound 10 µM) of the same molecule?
The viability, T/C was 3.32%.

What about the viability, T/C (second compound 3.16 µM, first compound 0.0316 µM) of the same molecule?
Its viability, T/C is 94.4%.

And the viability, T/C (second compound 3.16 µM, first compound 0.1 µM)?
Its viability, T/C is 127%.

And the viability, T/C (second compound 3.16 µM, first compound 0.316 µM)?
The viability, T/C was 130%.

What about the viability, T/C (second compound 3.16 µM, first compound 1 µM) of the same molecule?
The viability, T/C was 102%.

What about the viability, T/C (second compound 3.16 µM, first compound 3.16 µM) of the same molecule?
Its viability, T/C is 113%.

What about the viability, T/C (second compound 3.16 µM, first compound 10 µM) of the same molecule?
The viability, T/C was 4.31%.

What about the viability, T/C (second compound 10 µM, first compound 0.0316 µM) of the same molecule?
The viability, T/C was 99%.

And the viability, T/C (second compound 10 µM, first compound 0.1 µM)?
Its viability, T/C is 117%.

And the viability, T/C (second compound 10 µM, first compound 0.316 µM)?
The viability, T/C was 116%.

What about the viability, T/C (second compound 10 µM, first compound 1 µM) of the same molecule?
Its viability, T/C is 121%.

And the viability, T/C (second compound 10 µM, first compound 3.16 µM)?
The viability, T/C was 132%.

And the viability, T/C (second compound 10 µM, first compound 10 µM)?
The viability, T/C was 2.84%.
